Like-named read-outs stand apart in the source and are kept apart here. A value given as a limit tells only on which side of the number the result lay.

Among the data in patent US10005767B2, “Compositions and methods for inhibition of the JAK pathway” (Rigel Pharmaceuticals, Inc., priority 2009, dated 2018) are IC50 values, retold here.

This test deals with human primary T-cells, IL-2 stimulated proliferation (JAK-1 and JAK-3 dependent; reported as JAK3 activity). As to the kind of experiment: Human primary T-cell proliferation stimulated by IL-2 (Example 3). It counts as cell-based. The note with it: tested under conditions described in Example 3 (IL-2 stimulated human primary T-cell proliferation), read-out: ability to inhibit JAK3 activity, IC50 range (Table V). A digest of the protocol:
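Peripheral-blood human T-cells pre-activated via TCR/CD28, IL-2-starved overnight, then cultured 72 h at 37 °C with compound in Yssel's medium containing IL-2 (80 U/mL in cell suspension). Proliferation read as viable-cell ATP by CellTiter-Glo luminescence; reduction versus control taken as JAK pathway inhibition.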

As usually defined, the IC50 is the concentration that gives 50% inhibition. For the compound `Cc1cnc(Nc2ccc(N3CCOCC3)c(C#N)c2)nc1Nc1ccc2oc(=O)[nH]c2c1` [Compound I-327, N2-(3-cyano-4-morpholino)phenyl-5-methyl-N4-(2-oxo-2,3-dihydro-1,3-benzoxazol-5-yl)-2,4-pyrimidinediamine], the IC50 was under 500 nM.
Same read-out and setting: with `Cc1cnc(Nc2cc(F)cc(C(F)(F)F)c2)nc1Nc1ccc2oc(=O)[nH]c2c1` [Compound I-360, N2-(3-fluoro-5-trifluoromethyl)phenyl-5-methyl-N4-(2-oxo-2,3-dihydro-1,3-benzoxazol-5-yl)-2,4-pyrimidinediamine] the figure was under 500 nM; with “N4-(benzo[d]oxazol-2(3H)-on-5-yl)-N2-(2-(bicyclo[2.2.1]heptan-2-ylmethyl)isoindolin-5-yl)-5-methylpyrimidine-2,4-diamine [III-11]”, under 500 nM.
As to `COc1ccc(Nc2ncc(C)c(Nc3ccc4oc(=O)[nH]c4c3)n2)cc1Cl` [Compound I-496, 5-[2-(3-Chloro-4-methoxy-phenylamino)-5-methyl-pyrimidin-4-ylamino]-3H-benzooxazol-2-one], the IC50 (Homo sapiens, T-cell) was under 500 nM.
For `COc1ccc(Nc2ncc(C)c(Nc3ccc4oc(=O)[nH]c4c3)n2)cc1C(F)(F)F` [Compound I-297, N2-(4-methoxy-3-trifluoromethyl)phenyl-5-methyl-N4-(2-oxo-2,3-dihydro-1,3-benzoxazol-5-yl)-2,4-pyrimidinediamine], the IC50 is under 500 nM.
Still for that read-out and setting: with `CCCN1CCN(c2cc(Nc3ncc(C)c(Nc4ccc5oc(=O)[nH]c5c4)n3)ccc2C(F)(F)F)CC1` [Compound I-285, 5-methyl-N4-(2-oxo-2,3-dihydro-1,3-benzoxazol-5-yl)-N2-[3-(4-propylpiperazino)-4-trifluoromethyl]phenyl-2,4-pyrimidinediamine] the figure was under 500 nM.
In the case of `Cc1cnc(Nc2ccc3cnn(C)c3c2)nc1Nc1ccc2oc(=O)[nH]c2c1` [IV-41, 5-methyl-N2-(1-methylindazol-6-yl)-N4-(2-oxo-2,3-dihydro-1,3-benzoxazol-5-yl)-2,4-pyrimidinediamine], the IC50 (Homo sapiens, T-cell) is under 500 nM.
Same read-out and setting: with `Cc1cnc(Nc2ccc3onc(C)c3c2)nc1Nc1ccc2oc(=O)[nH]c2c1` [IV-9, N4-(benzo[d]oxazol-2(3H)-on-5-yl)-N2-(3-methyl-1,2-benzisoxazol-5-yl)-5-methylpyrimidine-2,4-diamine] the figure was under 500 nM.
Same read-out and setting: for `Cc1cnc(Nc2ccc(C(N)=O)cc2)nc1Nc1ccc2oc(=O)n(COP(=O)(O)O)c2c1` [Compound I-147, (5-(2-(4-carbamoylphenylamino)-5-methylpyrimidin-4-ylamino)-2-oxobenzo[d]oxazol-3(2H)-yl)methyl dihydrogen phosphate] the value was under 500 nM.
Same read-out and setting: with `Cc1cnc(Nc2cccc(C)c2C)nc1Nc1ccc2oc(=O)[nH]c2c1` [Compound I-500, 5-(2-(2,3-dimethylphenylamino)-5-methylpyrimidin-4-ylamino)benzo[d]oxazol-2(3H)-one] the figure was 500 to 5000 nM.
As for `Cn1c(=O)oc2ccc(Nc3nc(Nc4ccc(F)c(NS(C)(=O)=O)c4)ncc3F)cc21` [Compound I-91, N2-((4-fluoro-3-methylsulfonylamino)phenyl)-N4-(3-methyl-2-oxo-2,3-dihydrobenzo[d]oxazol-5-yl)-5-fluoropyrimidine-2,4-diamine], the IC50 was in the range of 500 to 5000 nM.
As to `O=c1[nH]c2cc(Nc3nc(Nc4ccc(N5C[C@@H]6C[C@H]5CO6)nc4)ncc3F)ccc2o1` [II-34, N4-(benzoxazolin-2-on-5-yl)-N2-[2-((1S,4S)-2-oxa-5-azabicyclo[2.2.1]heptan-5-yl)pyridin-5-yl]-5-fluoropyrimidine-2,4-diamine], the IC50 (Homo sapiens, T-cell) was under 500 nM.
With `CCNC(=O)N1CCN(c2ccc(Nc3ncc(C)c(Nc4ccc5oc(=O)[nH]c5c4)n3)cc2)CC1` [Compound I-333, N2-[4-(4-ethylaminocarbonyl)piperazino]phenyl-5-methyl-N4-(2-oxo-2,3-dihydro-1,3-benzoxazol-5-yl)-2,4-pyrimidinediamine], the IC50 is under 500 nM.
